# Test system: RAW 264.7 macrophages
# Assay: LPS-induced cytokine production in macrophages (ELISA, Western)
# Format: cell-based, mouse
# Details: for TNF-α: RAW 264.7 macrophages
# From the text: Animals. Male C57BL/6 and IL-10 (−/−) mice were purchased from Jackson Laboratory (Bar Harbor, Me.), and allowed to acclimate for one week with rodent chow and water ad libitum. The MKK (−/−) mice were generated as previously described [Lu, et al., EMBO J. 18:1845-1857 (1999)]. Wild type littermates were used as controls. All animals were housed in accordance with guidelines from the American Association for Laboratory Animal Care and Research Protocols and were approved by the Animal Care and Use Committee of Yale University School of Medicine. Reagents. All reagents were purchased from Sigma Chemical Co. (St Louis, Mo.) unless specified otherwise. Plasmid Construct. Plasmid pSFFV/HO-1 was constructed by insertion of the rat HO-1 cDNA [Shibahara, et al., Proc. Natl. Acad. Sci. USA. 82: 7865-7869 (1985)] downstream of the Friend spleen focus-forming virus 5′ long-terminal repeat in the mammalian expression vector pSFFV/neo [Fuhlbrigge, et al, Proc. Natl. Acad. Sci. USA. 85: 5649-5653 (1988)] (kindly provided by Stanley Korsmeyer). Transfection. Stable transfections were carried out by the calcium phosphate precipitation technique as previously described [Alam, J., J. Biol. Chem. 269: 25049-25056 (1994)]. Briefly, RAW cells were plated (1×10^6/10 cm plate) and 16 h later, transfected with […] of pSFFV/neo or pSFFV/HO-1. Cells were exposed to the DNA-CaPO4 precipitate for 6 h, shocked by a 1 min treatment with glycerol in phosphate-buffered saline and cultured for an additional 24 h in complete medium before addition of G418. Transfectants were selected over a 3-week period in the presence of G418 (up to […]) and individual clones were isolated by limited dilution. Cell Culture Experimentation. RAW 264.7 mouse peritoneal macrophages were purchased from […] (Rockville, Md.) and primary culture of rat pulmonary vascular smooth muscle cells were harvested from male Sprague Dawley rats (250-300 g) as previously described [Gunther, et al., J. Cell. Biol. 92: 289-298 (1982).]. Both cell types were grown in DMEM containing 10% FBS and gentamicin ([…]) in a humidified atmosphere of 5% CO2/balanced air or 250 ppm CO/5% CO2/balanced air. After a 2 h pretreatment with either CO or air, LPS ([…]) or sterile saline was added to the culture media and the culture plates were returned to the chamber(s). At various time points, cell plates were removed from the chamber to collect media and/or cells for Western analysis. CO Exposures. Mice or macrophages were exposed to compressed air or 250 ppm CO. For cell culture experiments, 5% CO2 was also present for buffering requirements. CO at a concentration of 1% (10,000 ppm) in compressed air was mixed with compressed air with or without CO2 in a stainless steel mixing cylinder before delivery into the exposure chamber. Flow into the 3.70-ft^2 plexiglass animal chamber was maintained at 12 L/min and into the 1.2 ft^2 cell culture chamber at a flow of 2 L/min. The cell culture chamber was humidified and maintained at 37° C. A CO analyzer (Interscan, Chatsworth, Calif.) was used to measure CO levels continuously in the chambers. Gas samples were taken by the analyzer through a port in the top of the chambers at a rate of 1 L/min and analyzed by electrochemical detection, with a sensitivity of 10-600 ppm. Concentration levels were measured hourly and there were no fluctuations in the CO concentrations once the chamber had equilibrated (approximately 5 min). Animal Experimentation. Mice were prebled from the retroorbital sinus (0.25 ml) and then exposed to CO (250 ppm) or room air for 1 h prior to administration of LPS (1 mg/kg, i.p.), E. coli serotype O127:B8. 1 and 16 h thereafter, they were removed from the exposure apparatus individually and a blood sample was obtained via the retroorbital sinus. After the blood collection, the mice were immediately returned to the exposure chamber. […]
smiles,measurement,setting,value
"Nc1nc2c(nc(Br)n2[C@@H]2O[C@@H]3COP(=O)(O)O[C@H]3[C@H]2O)c(=O)[nH]1 [8-Br-cGMP, reference compound]",TNF-α,with LPS,530 ± 35 pg/mL
same,TNF-α,without LPS,18 ± 6 pg/mL
same,effect on LPS-induced TNF-α production,added to macrophage culture followed by LPS,no effect
